Bounds are passed on as bounds.

The assay deals with Plasminogen activator inhibitor 1 (Homo sapiens, UniProt P05121). The assay can be described thus: Inhibitory concentration required against Plasminogen activator inhibitor 1.
Sequence of Plasminogen activator inhibitor 1 (P05121 whole entry): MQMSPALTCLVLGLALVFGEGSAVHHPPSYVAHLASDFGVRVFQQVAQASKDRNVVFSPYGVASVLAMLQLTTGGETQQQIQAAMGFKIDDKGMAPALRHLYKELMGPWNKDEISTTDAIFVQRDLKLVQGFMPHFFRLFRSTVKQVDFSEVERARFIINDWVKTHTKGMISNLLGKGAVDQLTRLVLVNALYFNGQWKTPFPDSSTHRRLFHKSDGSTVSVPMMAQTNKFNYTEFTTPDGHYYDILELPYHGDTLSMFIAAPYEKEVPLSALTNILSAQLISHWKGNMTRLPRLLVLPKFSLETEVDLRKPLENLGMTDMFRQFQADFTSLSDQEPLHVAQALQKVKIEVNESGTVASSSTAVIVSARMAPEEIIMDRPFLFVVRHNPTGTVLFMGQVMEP
As for `COc1cccc(-c2[nH]c(=O)c3ccccc3c2O)c1`, half-maximal inhibition (IC50) was put at 9.8 µM. The figure for `O=C1N/C(=C\c2ccc(OCCCc3cccnc3)cc2)C(=O)c2ccccc21` is 18 µM. The figure for `O=c1[nH]/c(=C\c2ccc(OCCCc3cccnc3)cn2)c(=O)[nH]/c1=C\c1ccccc1` is > 50 µM; for `O=C(Nc1ccc(Cl)cc1)c1nc(O)c2ccccc2c1O` it is 24 µM. Regarding `O=C(Nc1ccc(/C=C2\NC(=O)c3ccccc3C2=O)cc1)c1ccco1`, the IC50 (usually the midpoint of a concentration-inhibition curve) was 1.9 µM.

Consider `O=C(Nc1ccc(Cl)c(Cl)c1)c1nc(O)c2ccccc2c1O`, for which the 50% inhibitory concentration (IC50) stood at 14 µM.

As for `O=C(Nc1ccc(Oc2ccc(OC(F)(F)F)cc2)cc1)c1[nH]c(=O)c2ccccc2c1O`, the IC50 was 1 µM. Then `Oc1nc(-c2ccccc2)c(O)c2ccccc12`, with 50 µM. The figure for `O=c1[nH]/c(=C\c2ccc(OCCCc3cccnc3)cc2)c(=O)[nH]/c1=C\c1ccccc1` is 1 µM; for `O=C(Nc1ccc(/C=C2\NC(=O)c3ccccc3C2=O)cc1)c1ccccc1` it is 8.6 µM. The figure for `O=c1[nH]c(-c2ccc(F)cc2)c(O)c2ccccc12` is 39.5 µM. `Cn1c(=O)/c(=C/c2ccc(OCCCc3cccnc3)cc2)[nH]c(=O)/c1=C/c1ccccc1`: the midpoint of inhibition, the IC50, lay at 12 µM. The figure for `Oc1nc(-c2ccc(Cl)cc2)c(O)c2ccccc12` is 23.6 µM; for `O=c1[nH]/c(=C\c2ccccn2)c(=O)[nH]/c1=C\c1ccc(OCCCc2cccnc2)cc1` it is 0.3 µM.

The compound `O=C(Nc1ccc(/C=C2\NC(=O)c3ccccc3C2=O)cc1)c1cccs1` gave an IC50 of 4 µM.

As for `O=C(Nc1cc(C(F)(F)F)cc(C(F)(F)F)c1)c1nc(O)c2ccccc2c1O`, the midpoint of inhibition, the IC50, lay at 13.7 µM. Then `O=c1[nH]/c(=C\c2nccs2)c(=O)[nH]/c1=C\c1ccc(OCCCc2cccnc2)cc1`, with 0.6 µM.

The values above are taken from ChEMBL document CHEMBL1134892, “Novel inhibitors of plasminogen activator inhibitor-1: development of new templates from diketopiperazines” (Bioorg Med Chem Lett, 2002).
